According to article PMC11714206, “Massively Parallel Screening of Toll/Interleukin‐1 Receptor (TIR)‐Derived Peptides Reveals Multiple Toll‐Like Receptors (TLRs)‐Targeting Immunomodulatory Peptides” (Advanced Science, 2024):

Key:
MAL^TIR = target: T1, MAL^TIR (Homo sapiens, UniProt P58753); experiment: T‐Surf phage library (P8 and P3) selection against MAL^TIR, four rounds, NGS read counts; format: binding; details: for P8_MAL Rank (after) / P8_MAL Rank (before): P8 library; for P3_MAL Rank (after) / P3_MAL Rank (before): P3 library
T1 construct: MAL (residues 79–221); 6xHis; made in house; host or cells: E. coli BL21 (DE3)
T1 sequence (P58753 79-221): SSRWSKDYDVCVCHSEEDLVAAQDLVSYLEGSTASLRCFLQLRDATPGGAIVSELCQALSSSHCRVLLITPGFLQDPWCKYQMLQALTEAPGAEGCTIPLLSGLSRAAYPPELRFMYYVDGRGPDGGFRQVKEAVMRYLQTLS
Description: T‐Surf libraries were screened against the immobilized TIR domains of two major human TLR adaptor proteins, MAL^TIR and MyD88^TIR, allowing cross‐species selection of TIR‐binding motifs with 190 946 TIR‐derived peptides in a single binding assay (Scheme 1). Enriched phage pools from the fourth round of selection were analyzed using NGS after barcoding the peptide‐coding regions of the phage pools.
Phage display screening was performed by coating two wells of a 96‐well plate (Maxisorp, Thermo Fisher Scientific) with 100 µL of 5 µg mL^−1 TIR domains overnight; then, the coated wells were blocked with 200 µL of blocking buffer (0.2% BSA in PBS) and set aside for 1 h at 4 °C with gentle shaking. Next, 100 µL of the phage library was added to the wells and incubated for 1 h at room temperature (RT; 20 – 22 °C) with gentle shaking. The plate was washed four times with PBS containing 0.5% Tween‐20; the bound phages were eluted by adding 100 µL of 100 mM HCl to each well. The elute was neutralized with 10 µL of 1.0 M Tris‐HCl (pH 11.0). E. coli TG1 cells were grown to the log phase (A600 = ≈0.6), and 1 mL of the culture was incubated with 100 µL of the eluted phages for 30 min at 37 °C, with shaking at 200 rpm. Next, 1 µL of M13KO7 helper phages was added, followed by incubation for 45 min at 37 °C, with shaking. Subsequently, the cells were transferred to 25 mL of 2× yeast extract tryptone/carbenicillin/kanamycin medium and incubated overnight at 37 °C with shaking at 200 rpm. The amplified phages were precipitated with 20% PEG‐8000/2.5 M NaCl to be used for the next round of selection.
The naïve T‐Surf libraries in P8 and P3 and the enriched phage pools after four rounds were barcoded for NGS as previously described.^[ [59] ^] Briefly, 5 µL of the phage pool was used as a template for 20 cycles of a 50 µL PCR reaction using […] each of forward and reverse barcoded primers and PrimeSTAR Max DNA Polymerase. The PCR products were purified using Expin Gel SV (GeneAll). The NGS samples were quantified using qPCR, following the qPCR Quantification Protocol Guide (KAPA Library Quantification kits for Illumina Sequencing Platform), and qualified using the TapeStation High Sensitivity D1000 ScreenTape (Agilent Technologies). The indexed libraries were further sequenced by Macrogen (Seoul, Republic of Korea) using the NovaSeq platform (Illumina) with 100 bp paired‐end reads. The reads were demultiplexed by barcodes and filtered for an average Phred quality score of at least 30, followed by trimming the flanking consensus sequences using Cutadapt (version 2.3). Peptide sequence populations were analyzed according to the read counts.

MyD88^TIR = target: T2, MyD88^TIR (Homo sapiens, UniProt Q99836); experiment: T‐Surf phage library (P8 and P3) selection against MyD88^TIR, four rounds, NGS read counts; format: binding; details: for Population: 4th round of selection against MyD88 TIR, share of NGS reads; for P8_MyD88 Rank (after) / P8_MyD88 Rank (before): P8 library; for P3_MyD88 Rank (after) / P3_MyD88 Rank (before): P3 library
T2 construct: MyD88 (residues 148–296); 6xHis; made in house; host or cells: E. coli BL21 (DE3)
T2 sequence (Q99836 148-296): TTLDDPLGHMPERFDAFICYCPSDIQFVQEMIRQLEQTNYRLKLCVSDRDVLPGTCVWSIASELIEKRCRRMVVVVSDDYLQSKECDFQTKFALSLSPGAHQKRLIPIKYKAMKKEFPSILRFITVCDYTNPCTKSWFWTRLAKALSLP
Outline: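 Read counts come from NGS of phage pools after the fourth selection round, barcoded by 20-cycle PCR and filtered for quality ≥30. Each round: phage incubated 1 h at RT on immobilised TIR protein (5 µg mL^−1, BSA-blocked), washed, HCl-eluted and amplified in E. coli TG1.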

[1] = selection against MAL, rank by count after grouping
[2] = selection against MAL, rank by count before grouping
[3] = selection against MAL TIR, rank by count after grouping
[4] = selection against MAL TIR, rank by count before grouping
[5] = selection against MAL, rank after grouping
[6] = selection against MAL, rank before grouping
[7] = P8_MAL: rank by count after grouping
[8] = P8_MAL: rank by count before grouping
[9] = P3_MyD88 pool: P3 T-Surf phage library
[10] = P3_MyD88: rank by count after grouping
[11] = P3_MyD88: rank by count before grouping
[12] = selection against MyD88 TIR, rank by count after grouping
[13] = selection against MyD88 TIR, rank by count before grouping
[14] = 4R selection against MyD88, rank after grouping
[15] = 4R selection against MyD88, rank before grouping
[16] = selection against MyD88, rank after grouping
[17] = selection against MyD88, rank before grouping
[18] = P8_MyD88: rank by NGS read count after grouping
[19] = P8_MyD88: rank by NGS read count before grouping
[20] = selection against MyD88, rank by count after grouping
[21] = selection against MyD88, rank by count before grouping

AFFWEQLRTALGNPTM
P8_MAL Rank (after) (MAL^TIR; [1]): 704 | P8_MAL Rank (before) (MAL^TIR; [2]): 1698

GGFLSHLFDAFSVSR
P3_MAL Rank (after) (MAL^TIR; [1]): 749 | P3_MAL Rank (before) (MAL^TIR; [2]): 1758

TFLCHQYNALVQAGIH
P8_MAL Rank (after) (MAL^TIR; [3]): 219 | P8_MAL Rank (before) (MAL^TIR; [4]): 2547

RLLKWKEALHQFIAG
P3_MAL Rank (after) (MAL^TIR; [3]): 264 | P3_MAL Rank (before) (MAL^TIR; [4]): 2518

KLFWEKFKFFRPSLSC
P8_MAL Rank (after) (MAL^TIR; [3]): 226 | P8_MAL Rank (before) (MAL^TIR; [4]): 2709

AFLYTFLIILTHPINF
P8_MAL Rank (after) (MAL^TIR; [1]): 688 | P8_MAL Rank (before) (MAL^TIR; [2]): 1833

NYASSSWALDELWNIF
P8_MAL Rank (after) (MAL^TIR; [5]): 502 | P8_MAL Rank (before) (MAL^TIR; [6]): 2655

LFFWESLKKLLRSAGR
P8_MAL Rank (after) (MAL^TIR; [5]): 531 | P8_MAL Rank (before) (MAL^TIR; [6]): 2114

YFLHFLLFSRPNRVY
Rank (after) (MAL^TIR; [7]): 438 | Rank (before) (MAL^TIR; [8]): 1488

YAFTGHQHNYMVQRGV
Rank (after) (MAL^TIR; P3_MAL: rank by count after grouping): 420 | Rank (before) (MAL^TIR; P3_MAL: rank by count before grouping): 1447

WFYERLVSLILRDTKX
Population (MAL^TIR; P8_MAL pool: P8 T-Surf phage library, 4th round of selection against MAL TIR, share of NGS reads): 0.0034%

RKFVAYPFQALANKGI
P8_MAL Rank (after) (MAL^TIR; [1]): 703 | P8_MAL Rank (before) (MAL^TIR; [2]): 2255

KERLHQWKLALTQAANLS
P3_MAL Rank (after) (MAL^TIR; [1]): 766 | P3_MAL Rank (before) (MAL^TIR; [2]): 3603

WFYARLVSLLLRDTKV
Rank (after) (MAL^TIR; [7]): 150 | Rank (before) (MAL^TIR; [8]): 1132

SSFREGLWRLMELSNK
P3_MAL Rank (after) (MAL^TIR; 4R selection against MAL, rank after grouping): 593 | P3_MAL Rank (before) (MAL^TIR; 4R selection against MAL, rank before grouping): 3169

RFMMKFRTELDRGNGG
P8_MAL Rank (after) (MAL^TIR; [5]): 489 | P8_MAL Rank (before) (MAL^TIR; [6]): 2304

LKVESWRQALGKAGKL
Population (MyD88^TIR; [9]): 0.00349%

KWFWDKLKYALPHRYEP
Rank (after) (MyD88^TIR; [10]): 128 | Rank (before) (MyD88^TIR; [11]): 790

WALNELVEIYQAYKEL
P8_MyD88 Rank (after) (MyD88^TIR; [12]): 273 | P8_MyD88 Rank (before) (MyD88^TIR; [13]): 521

DPQDLGWFYERLISQILK
P8_MyD88 Rank (after) (MyD88^TIR; [14]): 624 | P8_MyD88 Rank (before) (MyD88^TIR; [15]): 2726

YYLDPSHLRKHSGEIG
P3_MyD88 Rank (after) (MyD88^TIR; [16]): 558 | P3_MyD88 Rank (before) (MyD88^TIR; [17]): 1464

DPQELVWRYERLVSLF
Rank (after) (MyD88^TIR; [18]): 962 | Rank (before) (MyD88^TIR; [19]): 3010

FGDHRMWWEDLVGIVD
P8_MyD88 Rank (after) (MyD88^TIR; [20]): 695 | P8_MyD88 Rank (before) (MyD88^TIR; [21]): 1302

EAFAVHVWSSKANSLVG
P3_MyD88 Rank (after) (MyD88^TIR; [20]): 727 | P3_MyD88 Rank (before) (MyD88^TIR; [21]): 2193

ISYRQGRWRLLELSKK
Rank (after) (MyD88^TIR; [10]): 461 | Rank (before) (MyD88^TIR; [11]): 2919

YQLVFVHFWMFDGRTA
P8_MyD88 Rank (after) (MyD88^TIR; [16]): 518 | P8_MyD88 Rank (before) (MyD88^TIR; [17]): 2106

DPQDLDWFYETSGEPD
Rank (after) (MyD88^TIR; [18]): 911 | Rank (before) (MyD88^TIR; [19]): 2804

WALDELLQILHARELLQIA
P8_MyD88 Rank (after) (MyD88^TIR; [14]): 632 | P8_MyD88 Rank (before) (MyD88^TIR; [15]): 1453

NGHENEIIKEIVETIV
P3_MyD88 Rank (after) (MyD88^TIR; [12]): 205 | P3_MyD88 Rank (before) (MyD88^TIR; [13]): 3381

NQWRNELTPAANLSGW
P3_MyD88 Rank (after) (MyD88^TIR; [20]): 698 | P3_MyD88 Rank (before) (MyD88^TIR; [21]): 3527

SSFHEGLWRMLELSKK
P3_MyD88 Rank (after) (MyD88^TIR; [20]): 737 | P3_MyD88 Rank (before) (MyD88^TIR; [21]): 3250

WALNELQKILNAKETI
Rank (after) (MyD88^TIR; [18]): 900 | Rank (before) (MyD88^TIR; [19]): 1553

DWVWDYLLPNLEGQR
P8_MyD88 Rank (after) (MyD88^TIR; [12]): 264 | P8_MyD88 Rank (before) (MyD88^TIR; [13]): 550

SSFREGLWRLLELSEK
Population (MyD88^TIR; [9]): 0.00349%

GFIDNLYQALANMGIH
Rank (after) (MyD88^TIR; P8_MyD88: rank by count after grouping): 122 | Rank (before) (MyD88^TIR; P8_MyD88: rank by count before grouping): 129 | Population (MyD88^TIR; P8_MyD88 pool: P8 T-Surf phage library): 0.0143%
